Assays:
weanling SHR rats = details: administered to weanling SHR rats; Melby et al., 1987; cited from earlier work
adrenal 19-hydroxylase = assay: in vitro radioenzymatic assay, inhibition of adrenal 19-hydroxylase (19-hydroxylation of radiolabeled deoxycorticosterone); type: biochemical, rat, hamster, bovine, primate, or human
Procedure: The compounds of the present invention are useful as 19-hydroxylase inhibitors and antihypertensive agents. […] The test compounds are solubilized in buffer/solvent media at concentrations ranging from 1 nM to 50 μM, then added to assay tubes containing an adrenal mitochondrial suspension, i.e., rat, hamster, bovine, primate, or human, an NADPH-generating system, and radiolabeled deoxycorticosterone. The assay components are incubated for varying time intervals at 25°-37° C. and the reaction is quenched. The hydroxylated corticoids [i.e., 19--HO--DOC (19-hydroxydesoxycorticosterone), 18--HO--DOC(18-hydroxydeoxycorticosterone) and corticosterone] are extracted with organic solvent and isolated by standard chromatographic procedures.

[1] = times the potency of DOC; Kagawa et al., 1957; cited from earlier work
[2] = Funder et al., 1978; cited from earlier work
bad bladder epithelia = details: relative to aldosterone; Perrone et al., 1981; cited from earlier work

Compound: C#CC[C@]12CCC(=O)C=C1CC[C@@H]1[C@@H]2CC[C@]2(C)C(=O)CC[C@@H]12 [10-(2-propynyl)estr-4-ene-3,17-dione]
- development of hypertension (weanling SHR rats): retards the development of hypertension
- levels of urinary free 19-norDOC (weanling SHR rats): reduces the levels of urinary free 19-norDOC

Compound: C#CC[C@]12CCC(=O)C=C1CC[C@@H]1[C@@H]2CC[C@]2(C)[C@@H](C(=O)CO)CC[C@@H]12 [21-hydroxy-10-(2-propynyl)-19-norpregn-4-ene-3,20-dione]
- IC50 (adrenal 19-hydroxylase; adrenal mitochondrial suspension, NADPH-generating system, radiolabeled deoxycorticosterone, 25°-37° C., time-dependent, read-out: IC50 (time-dependent enzyme inhibition)): ~50 nM
- affinity for the 19-hydroxylase active site relative to the natural substrate (DOC) (adrenal 19-hydroxylase; greater affinity than DOC): 12 times

Compound: C[C@]12CC[C@H]3[C@@H](CCC4=CC(=O)CC[C@@H]43)[C@@H]1CC[C@@H]2C(=O)CO [Example 19-norDOC, 19-nordeoxycorticosterone]
- Na-retaining activity, potency relative to DOC [1]: two to five
- hypertensive activity compared to deoxycorticosterone (DOC) [2]: much higher hypertensive activity
- stimulating Na^+ transport across bladder epithelia, potency vs aldosterone (bad bladder epithelia): equipotent to aldosterone

Source: patent publication US4910191A, “19-substituted progesterone derivatives useful as 19-hydroxylase inhibitors” (Merrell Dow Pharmaceuticals Inc., priority 1988, dated 1990)
